IC50, Activity and inhibition data for 11 compounds are collected here from ChEMBL document CHEMBL3763125, “Discovery of novel phenoxazinone derivatives as DKK1/LRP6 interaction inhibitors: Synthesis, biological evaluation and structure-activity relationships” (Bioorg Med Chem, 2016).

Common to all, as to assay type: cell-based
Data set [1] has as its target T1, Low-density lipoprotein receptor-related protein 6 (Homo sapiens, UniProt O75581). The data set is described as follows: Binding affinity to human LRP6 expressed in HEK293 cells assessed as inhibition of DKK1/LRP6 interaction using compound pre-treated DKK1 conditioned media after 2 hrs by fluorescence microscopic analysis.
Another data set relates to SH-SY5Y. The data set is described as follows: Cytotoxicity against human SH-SY5Y cells at 10 to 100 uM after 24 hrs by MTT assay. On the technique in general: Tetrazolium dyes change colour on reduction, which living cells bring about.
For data set [2], the target named is T1, Low-density lipoprotein receptor-related protein 6. The data set is described as follows: Binding affinity to LRP6 in human SH-SY5Y cells assessed as DKK1/LRP6 interaction-mediated increase in beta-catenin level at 10 uM incubated for 1 hr using compound pre-treated DKK1 conditioned media by Western blot analysis.
For data set [3] the target is unchanged. The data set is described as follows: Binding affinity to LRP6 in human SH-SY5Y cells assessed as inhibition of DKK1/LRP6 interaction-mediated tau phosphorylation at serine 396 at 10 uM incubated for 1 hr using compound pre-treated DKK1 conditioned media by Western blot analysis. Background: A western blot detects proteins with antibodies after separation by electrophoresis.

The term IC50 denotes the concentration that inhibits the measured activity by half.

Active and inactive are the calls of the source. The rule behind the calls is not given here.

T1 sequence (O75581 whole entry): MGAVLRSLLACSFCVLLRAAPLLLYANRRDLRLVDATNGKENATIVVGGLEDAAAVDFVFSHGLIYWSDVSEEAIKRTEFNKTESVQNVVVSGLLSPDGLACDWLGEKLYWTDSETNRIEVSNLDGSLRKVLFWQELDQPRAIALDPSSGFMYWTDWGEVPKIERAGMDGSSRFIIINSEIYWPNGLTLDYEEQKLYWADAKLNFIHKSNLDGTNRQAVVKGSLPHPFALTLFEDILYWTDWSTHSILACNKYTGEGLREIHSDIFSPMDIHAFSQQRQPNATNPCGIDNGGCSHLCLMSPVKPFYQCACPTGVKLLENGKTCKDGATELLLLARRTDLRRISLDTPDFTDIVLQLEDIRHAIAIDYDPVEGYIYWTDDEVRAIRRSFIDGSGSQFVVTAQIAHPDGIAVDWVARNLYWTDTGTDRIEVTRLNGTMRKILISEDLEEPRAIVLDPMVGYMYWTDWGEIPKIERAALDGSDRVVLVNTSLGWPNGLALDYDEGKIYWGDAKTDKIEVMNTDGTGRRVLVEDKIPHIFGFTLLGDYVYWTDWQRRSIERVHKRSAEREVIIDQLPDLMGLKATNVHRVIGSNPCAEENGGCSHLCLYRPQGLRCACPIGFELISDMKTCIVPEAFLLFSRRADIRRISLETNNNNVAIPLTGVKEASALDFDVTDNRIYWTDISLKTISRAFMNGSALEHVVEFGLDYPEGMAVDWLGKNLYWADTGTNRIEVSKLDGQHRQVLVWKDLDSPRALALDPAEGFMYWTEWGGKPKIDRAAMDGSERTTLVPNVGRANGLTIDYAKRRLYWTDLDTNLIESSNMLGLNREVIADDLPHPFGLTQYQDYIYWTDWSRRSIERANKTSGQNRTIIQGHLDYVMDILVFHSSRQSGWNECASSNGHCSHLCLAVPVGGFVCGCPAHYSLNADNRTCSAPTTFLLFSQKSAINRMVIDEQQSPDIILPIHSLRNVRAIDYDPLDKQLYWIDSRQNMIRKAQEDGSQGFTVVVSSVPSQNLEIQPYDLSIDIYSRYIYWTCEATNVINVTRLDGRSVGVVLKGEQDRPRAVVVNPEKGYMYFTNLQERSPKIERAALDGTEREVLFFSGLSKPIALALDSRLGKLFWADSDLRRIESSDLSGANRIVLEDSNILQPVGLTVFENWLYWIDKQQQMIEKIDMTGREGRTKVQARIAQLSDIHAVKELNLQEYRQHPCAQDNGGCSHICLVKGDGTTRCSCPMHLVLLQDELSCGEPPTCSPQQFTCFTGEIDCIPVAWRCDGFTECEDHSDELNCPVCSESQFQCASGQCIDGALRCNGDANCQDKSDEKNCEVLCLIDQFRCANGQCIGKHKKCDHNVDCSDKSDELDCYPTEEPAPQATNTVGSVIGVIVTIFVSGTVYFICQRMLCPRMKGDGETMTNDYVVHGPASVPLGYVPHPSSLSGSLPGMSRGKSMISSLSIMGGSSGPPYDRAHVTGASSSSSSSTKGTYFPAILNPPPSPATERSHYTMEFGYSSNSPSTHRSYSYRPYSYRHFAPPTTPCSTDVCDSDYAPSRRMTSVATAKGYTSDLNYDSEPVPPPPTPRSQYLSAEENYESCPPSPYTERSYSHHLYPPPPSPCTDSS

Turning to `COC(=O)c1c2nc3ccc(N(C)C)cc3oc-2c(O)c(=O)c1Nc1ccccc1`, in data set [1], the IC50 was 6.16 µM. The Activity entry with SH-SY5Y is given as “Non-toxic”. In addition, in data set [2], the inhibition result is “Active”.
In the case of `COC(=O)c1c2nc3ccc(N(C)C)cc3oc-2c(O)c(=O)c1Nc1ccc(C)cc1`, in data set [1], the IC50 worked out at 3.77 µM. In addition, in the data set on SH-SY5Y, the Activity result is given as “Non-toxic”. Also, in data set [2], the inhibition entry was “Active”.
With `COC(=O)c1c2nc3ccc(N(C)C)cc3oc-2c(O)c(=O)c1N1CCCCC1`, the IC50 in data set [1] came out at 5.5 µM. Also, in the data set with SH-SY5Y, the Activity result is given as “Non-toxic”. For the same compound, the inhibition result in data set [3] and in data set [2] was “Active” each time.
Regarding `CCCCOC(=O)c1c2nc3ccc(N(C)C)cc3oc-2c(O)c(=O)c1NCc1ccc(OC)cc1`, the IC50 in data set [1] came to 3.38 µM. Also, the Activity entry in the data set with SH-SY5Y is “Non-toxic”. The inhibition entry in data set [2] was “Active”.
For the compound `COC(=O)c1c2nc3ccc(N(C)C)cc3oc-2c(O)c(=O)c1NCc1ccc(OC)cc1`, the IC50 in data set [1] was 4.33 µM. The Activity entry in the data set with SH-SY5Y was “Non-toxic”. In addition, the inhibition entry in data set [2] was “Active”.
`COC(=O)c1c2nc3ccc(N(C)C)cc3oc-2c(O)c(=O)c1Nc1ccc(Cl)c(Cl)c1`: the concentration for half-maximal inhibition (IC50) in data set [1] came to 4.87 µM. The Activity entry in the data set on SH-SY5Y is on record as “Non-toxic”. In addition, the inhibition result in data set [3] and in data set [2] was “Active” each time.
As to `COC(=O)c1c2nc3ccc(N(C)C)cc3oc-2c(O)c(=O)c1N1CCOCC1`, in data set [1], the half-inhibitory concentration (IC50) was 3.74 µM. Moreover, the Activity result with SH-SY5Y is reported as “Non-toxic”. Besides, in data set [2], the inhibition result was “Active”.
As to `COC(=O)c1c2nc3ccc(N(C)C)cc3oc-2c(O)c(=O)c1N`, in data set [1], the IC50 was determined as 5.23 µM. The Activity result in the data set on SH-SY5Y is reported as “Non-toxic”. Moreover, the inhibition entry in data set [3] and in data set [2] was “Active” throughout.
As to `COC(=O)c1c2nc3ccc(N(C)C)cc3oc-2c(O)c(=O)c1Nc1ccc(OC)cc1`, the IC50 in data set [1] worked out at 4.71 µM. For the same compound, in the data set with SH-SY5Y, the Activity result is listed as “Non-toxic”. The inhibition entry in data set [2] was “Active”.
For `COC(=O)c1c2nc3ccc(N(C)C)cc3oc-2c(O)c(=O)c1NC1CCCCC1`, the 50% inhibitory concentration (IC50) in data set [1] is 4.06 µM. In addition, the Activity entry in the data set on SH-SY5Y is recorded as “Non-toxic”. The inhibition entry in data set [2] was “Active”.
The like results for `COC(=O)c1c2nc3ccc(N(C)C)cc3oc-2c(O)c(=O)c1NC1CCCC1` were, in that order, 4.61 µM, “Non-toxic” and “Active”.
